Tests used:
Chenopodium album [1] = assay: Upland soil treatment (Test Example 2); format: in vivo; conditions: soil surface treatment next day after sowing, wettable powder, 1 kg active ingredient per hectare, evaluated 21st day after application
Description: (§1) In the above evaluation criteria, the term “herbicidal effect” means evaluation to the objective weeds, and a higher index of the evaluation criteria means higher herbicidal effect on the objective weeds. On the other hand, a lower index of the evaluation criteria for the crops means higher safety to the crops. A plastic pot of 130 cm^2 was filled with upland soil. Then, seeds of weeds, namely, Setaria viridis, Digitaria adscendens, Chenopodium album and Stellaria media, and seeds of crops, namely, soybean (Glycine max) and wheat (Triticum aestivum), were sowed and covered with soil of about 1 cm thick. On the next day after the sowing, a wettable powder composition was prepared in accordance with Formulation Example 1, diluted with water in such an amount that the amount of the active ingredient became 1 kg per hectare, and then uniformly applied to the soil surface. On the 21st day after the application, observation and evaluation were carried out according to the aforesaid criteria.

Setaria viridis [2] = assay: Upland soil treatment (Test Example 2); format: in vivo; conditions: soil surface treatment next day after sowing, wettable powder, 1 kg active ingredient per hectare, evaluated 21st day after application
Description: as §1

Stellaria media [3] = assay: Upland soil treatment (Test Example 2); format: in vivo; conditions: soil surface treatment next day after sowing, wettable powder, 1 kg active ingredient per hectare, evaluated 21st day after application
Description: as §1

Digitaria adscendens [4] = assay: Upland soil treatment (Test Example 2); format: in vivo; conditions: soil surface treatment next day after sowing, wettable powder, 1 kg active ingredient per hectare, evaluated 21st day after application
Description: as §1

Chenopodium album [5] = assay: Upland field foliage treatment (Test Example 1); format: in vivo; conditions: foliage treatment 14th day after sowing, wettable powder, 1 kg active ingredient per hectare, evaluated 21st day after application
Description: (§2) In the above evaluation criteria, the term “herbicidal effect” means evaluation to the objective weeds, and a higher index of the evaluation criteria means higher herbicidal effect on the objective weeds. On the other hand, a lower index of the evaluation criteria for the crops means higher safety to the crops. A plastic pot of 130 cm^2 was filled with upland soil. Then, seeds of weeds, namely, Setaria viridis, Digitaria adscendens, Chenopodium album and Stellaria media, and seeds of crops, namely, soybean (Glycine max) and wheat (Triticum aestivum), were sowed and covered with soil of about 1 cm thick. On the 14th day after the sowing, a wettable powder composition was prepared in accordance with Formulation Example 1, diluted with water in such an amount that the amount of the active ingredient became 1 kg per hectare, and then uniformly applied to the plant leaf surfaces. On the 21st day after the application, observation and evaluation were carried out according to the aforesaid criteria.

Setaria viridis [6] = assay: Upland field foliage treatment (Test Example 1); format: in vivo; conditions: foliage treatment 14th day after sowing, wettable powder, 1 kg active ingredient per hectare, evaluated 21st day after application
Description: as §2

Stellaria media [7] = assay: Upland field foliage treatment (Test Example 1); format: in vivo; conditions: foliage treatment 14th day after sowing, wettable powder, 1 kg active ingredient per hectare, evaluated 21st day after application
Description: as §2

Digitaria adscendens [8] = assay: Upland field foliage treatment (Test Example 1); format: in vivo; conditions: foliage treatment 14th day after sowing, wettable powder, 1 kg active ingredient per hectare, evaluated 21st day after application
Description: as §2

[9] = system: wheat (Triticum aestivum); assay: Upland field foliage treatment (Test Example 1), crop; format: in vivo; conditions: foliage treatment 14th day after sowing, 1 kg active ingredient per hectare, evaluated 21st day, lower index = higher safety
Description: as §2

soybean (Glycine max) [10] = assay: as above; format: in vivo; conditions: foliage treatment 14th day after sowing, 1 kg active ingredient per hectare, evaluated 21st day, lower index = higher safety
Description: as §2

Ammannia multiflora = assay: Paddy field treatment (Test Example 3); format: in vivo; conditions: paddy pot, submerged 4 cm, dropped on water surface 10th day after transplantation, 1 kg active ingredient per hectare, evaluated 21st day
Experimental: (§3) In the above evaluation criteria, the term “herbicidal effect” means evaluation to the objective weeds, and a higher index of the evaluation criteria means higher herbicidal effect on the objective weeds. On the other hand, a lower index of the evaluation criteria for the crops means higher safety to the crops. A plastic pot of 130 cm^2 was filled with paddy soil, and soil puddling was carried out to adjust the submerged depth to 4 cm. Then, seeds of Echinochloa crusgalli, Monochoria vaginalis, Ammannia multiflora and Scirpus juncoides were sowed, and rice (Oryza […], variety: Koshihikari) of two-leaf period was transplanted by 2 rice plants of 1 stub per pot at a depth of 3 cm. On the 10th day after the transplantation, a wettable powder composition was prepared in accordance with Formulation Example 1, diluted with water in such an amount that the amount of the active ingredient became 1 kg per hectare, and then dropped to diffuse on the water surface. On the 21st day after the dropping, observation and evaluation were carried out according to the aforesaid criteria.

Monochoria vaginalis = assay: Paddy field treatment (Test Example 3); format: in vivo; conditions: paddy pot, submerged 4 cm, dropped on water surface 10th day after transplantation, 1 kg active ingredient per hectare, evaluated 21st day
Experimental: as §3

Scirpus juncoides = assay: Paddy field treatment (Test Example 3); format: in vivo; conditions: paddy pot, submerged 4 cm, dropped on water surface 10th day after transplantation, 1 kg active ingredient per hectare, evaluated 21st day
Experimental: as §3

[11] = system: wheat (Triticum aestivum); assay: Upland soil treatment (Test Example 2), crop; format: in vivo; conditions: soil surface treatment next day after sowing, 1 kg active ingredient per hectare, evaluated 21st day, lower index = higher safety
Description: as §1

soybean (Glycine max) [12] = assay: Upland soil treatment (Test Example 2), crop; format: in vivo; conditions: soil surface treatment next day after sowing, 1 kg active ingredient per hectare, evaluated 21st day, lower index = higher safety
Description: as §1

Echinochloa spp. = assay: Paddy field treatment (Test Example 3); format: in vivo, Echinochloa crusgalli; conditions: paddy pot, submerged 4 cm, dropped on water surface 10th day after transplantation, 1 kg active ingredient per hectare, evaluated 21st day
Experimental: as §3

[13] = system: rice (Oryza sative, variety: Koshihikari); assay: Paddy field treatment (Test Example 3), crop; format: in vivo, Oryza sativa; conditions: transplanted rice two-leaf period, water surface treatment 10th day after transplantation, 1 kg active ingredient per hectare, evaluated 21st day, lower index = higher safety
Experimental: as §3

| SMILES | Herbicidal activity Chenopodium album (Chenopodium album [1]) | Herbicidal activity Setaria viridis (Setaria viridis [2]) | Herbicidal activity Stellaria media (Stellaria media [3]) | Herbicidal activity Digitaria adscendens (Digitaria adscendens [4]) | Herbicidal activity Chenopodium album (Chenopodium album [5]) | Herbicidal activity Setaria viridis (Setaria viridis [6]) | Herbicidal activity Stellaria media (Stellaria media [7]) | Herbicidal activity Digitaria adscendens (Digitaria adscendens [8]) | Herbicidal activity Triticum aestivum [9] | Herbicidal activity Glycine max (soybean (Glycine max) [10]) | Herbicidal activity Ammannia multiflora (Ammannia multiflora) | Herbicidal activity Monochoria vaginalis (Monochoria vaginalis) | Herbicidal activity Scirpus juncoides (Scirpus juncoides) | Herbicidal activity Triticum aestivum [11] | Herbicidal activity Glycine max (soybean (Glycine max) [12]) | Herbicidal activity Echinochloa spp. (Echinochloa spp.) | Herbicidal activity Oryza sativa [13] |
| --- | --- | --- | --- | --- | --- | --- | --- | --- | --- | --- | --- | --- | --- | --- | --- | --- | --- |
| COC=C(Cn1nc(-c2cccc(C)c2)c(Br)c1C)C(=O)OC [Compound 26] | 4 (herbicidal effect of not less than 70% by weight and less than 90% by weight) | 4 (herbicidal effect of not less than 70% by weight and less than 90% by weight) | 4 (herbicidal effect of not less than 70% by weight and less than 90% by weight) | 4 (herbicidal effect of not less than 70% by weight and less than 90% by weight) | 5 (herbicidal effect of not less than 90% by weight) | 4 (herbicidal effect of not less than 70% by weight and less than 90% by weight) | 5 (herbicidal effect of not less than 90% by weight) | 5 (herbicidal effect of not less than 90% by weight) | 0 (herbicidal effect of not less than 0% by weight and less than 10% by weight) | 1 (herbicidal effect of not less than 10% by weight and less than 30% by weight) | 5 (herbicidal effect of not less than 90% by weight) | 5 (herbicidal effect of not less than 90% by weight) | 4 (herbicidal effect of not less than 70% by weight and less than 90% by weight) | 0 (herbicidal effect of not less than 0% by weight and less than 10% by weight) | 0 (herbicidal effect of not less than 0% by weight and less than 10% by weight) | 5 (herbicidal effect of not less than 90% by weight) | 0 (herbicidal effect of not less than 0% by weight and less than 10% by weight) |
| COC=C(Cn1nc(-c2ccc(Cl)c(Cl)c2)c(Cl)c1C)C(=O)OC [Compound 24] | 4 (herbicidal effect of not less than 70% by weight and less than 90% by weight) | 4 (herbicidal effect of not less than 70% by weight and less than 90% by weight) | 4 (herbicidal effect of not less than 70% by weight and less than 90% by weight) | 4 (herbicidal effect of not less than 70% by weight and less than 90% by weight) | 4 (herbicidal effect of not less than 70% by weight and less than 90% by weight) | 4 (herbicidal effect of not less than 70% by weight and less than 90% by weight) | 4 (herbicidal effect of not less than 70% by weight and less than 90% by weight) | 4 (herbicidal effect of not less than 70% by weight and less than 90% by weight) | 0 (herbicidal effect of not less than 0% by weight and less than 10% by weight) | 0 (herbicidal effect of not less than 0% by weight and less than 10% by weight) | 3 (herbicidal effect of not less than 50% by weight and less than 70% by weight) | 3 (herbicidal effect of not less than 50% by weight and less than 70% by weight) | 3 (herbicidal effect of not less than 50% by weight and less than 70% by weight) | 0 (herbicidal effect of not less than 0% by weight and less than 10% by weight) | 0 (herbicidal effect of not less than 0% by weight and less than 10% by weight) | 4 (herbicidal effect of not less than 70% by weight and less than 90% by weight) | 0 (herbicidal effect of not less than 0% by weight and less than 10% by weight) |
| COC=C(Cn1nc(-c2ccccc2)c(Cl)c1SC)C(=O)OC [Compound 41] | 4 (herbicidal effect of not less than 70% by weight and less than 90% by weight) | 4 (herbicidal effect of not less than 70% by weight and less than 90% by weight) | 4 (herbicidal effect of not less than 70% by weight and less than 90% by weight) | 4 (herbicidal effect of not less than 70% by weight and less than 90% by weight) | 4 (herbicidal effect of not less than 70% by weight and less than 90% by weight) | 4 (herbicidal effect of not less than 70% by weight and less than 90% by weight) | 4 (herbicidal effect of not less than 70% by weight and less than 90% by weight) | 4 (herbicidal effect of not less than 70% by weight and less than 90% by weight) | 0 (herbicidal effect of not less than 0% by weight and less than 10% by weight) | 0 (herbicidal effect of not less than 0% by weight and less than 10% by weight) | 3 (herbicidal effect of not less than 50% by weight and less than 70% by weight) | 3 (herbicidal effect of not less than 50% by weight and less than 70% by weight) | 3 (herbicidal effect of not less than 50% by weight and less than 70% by weight) | 0 (herbicidal effect of not less than 0% by weight and less than 10% by weight) | 0 (herbicidal effect of not less than 0% by weight and less than 10% by weight) | 4 (herbicidal effect of not less than 70% by weight and less than 90% by weight) | 0 (herbicidal effect of not less than 0% by weight and less than 10% by weight) |
| COC=C(Cn1nc(-c2cc(C)ccc2C)cc1C)C(=O)OC [Compound 5] | 4 (herbicidal effect of not less than 70% by weight and less than 90% by weight) | 4 (herbicidal effect of not less than 70% by weight and less than 90% by weight) | 4 (herbicidal effect of not less than 70% by weight and less than 90% by weight) | 5 (herbicidal effect of not less than 90% by weight) | 5 (herbicidal effect of not less than 90% by weight) | 4 (herbicidal effect of not less than 70% by weight and less than 90% by weight) | 4 (herbicidal effect of not less than 70% by weight and less than 90% by weight) | 4 (herbicidal effect of not less than 70% by weight and less than 90% by weight) | 0 (herbicidal effect of not less than 0% by weight and less than 10% by weight) | 0 (herbicidal effect of not less than 0% by weight and less than 10% by weight) | 3 (herbicidal effect of not less than 50% by weight and less than 70% by weight) | 5 (herbicidal effect of not less than 90% by weight) | 3 (herbicidal effect of not less than 50% by weight and less than 70% by weight) | 0 (herbicidal effect of not less than 0% by weight and less than 10% by weight) | 0 (herbicidal effect of not less than 0% by weight and less than 10% by weight) | – | 0 (herbicidal effect of not less than 0% by weight and less than 10% by weight) |
